Test results from paper PMC6816037 (Computational and Structural Biotechnology Journal, 2019).

Target: XIAP-BIR3 (Homo sapiens, UniProt P98170)
Assay: surface plasmon resonance
Type: binding

XIAP-BIR3, sequence (P98170 241-356 limits assumed): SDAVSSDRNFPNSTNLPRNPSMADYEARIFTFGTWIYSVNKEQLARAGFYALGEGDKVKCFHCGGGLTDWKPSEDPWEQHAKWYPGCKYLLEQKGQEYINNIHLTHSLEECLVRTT

C[C@@H]1O[C@@H](O[C@H]2[C@H](Oc3cc(O)c4c(c3)O[C@H](c3ccc(O)c(O)c3)CC4=O)O[C@H](CO)[C@@H](O)[C@@H]2O)[C@H](O)[C@H](O)[C@H]1O [compound 10, neoeriocitrin]
Kd: 13.3 µM
